Assay results reported in US20210330760A1, “METHODS AND MATERIALS FOR TREATING OSTEOARTHRITIS” (University of Pittsburgh - Of the Commonwealth System of …, priority 2020, published 2021).
“Also recorded” adds a separate entry of the source.

Legend:
Assay type in all cases: in vivo
Details in all cases: aged male mice (21-24 months), daily subcutaneous BAPN for 4 weeks, vs saline
[1] = test system: medial tibial cartilage of aged male C57/BL6 mice; assay: BAPN daily injection in aged mice, cartilage histology (OARSI score)
Experimental: (§1) Aged male C57/BL6 mice (21-24 months; body mass) received daily subcutaneous injections of either saline, as a control, or BAPN (290 μg/μ1 in saline) for 4 weeks every day. Volume of the injection (40-80 μl) was determined based on mice body mass (m) with following protocol: 40 μl (18.45 g≤m≤23.73 g), 50 μl (23.73 g≤m≤29.00 g), 60 ul (29.00 g≤m≤34.27 g), 70 μl (34.27 g≤m≤39.55 g), 80 μl (39.55 g≤m≤44.82 g). Mice were weighed every other day beginning on day 0 and ending on day 28 to ensure proper dosage of BAPN.
Mice knee joints and human cartilage samples were fixed in 4% paraformaldehyde overnight at 4° C., and decalcified in 20% ethylene diamine tetra acetic acid solution for 10 days. Decalcified paraffin sections (5 μm thickness) were prepared from central region of the mice knee joints in the frontal plane in accordance with the OARSI recommendation (Glasson, et al., Osteoarthritis Cartilage 18 Suppl 3, S17-23 (2010)). Decalcified paraffin sections from human cartilage specimen were also prepared. […] The OARSI scoring system, consisting of six grades and four stages on a scale from 0 (normal) to 24 (severe cartilage lesion), was used for semi-quantitative evaluation of cartilage lesion severity (Pritzker, et al., Osteoarthritis Cartilage 14, 13-29 (2006)). The most severe score was evaluated as the maximum OARSI score. […]

α-Klotho = assay: BAPN daily injection in aged mice, α-Klotho immunofluorescence in chondrocytes
Experimental: as §1
Immunofluorescence analysis for tissue section and/or cell-seeded pAAm gel was performed to determine the signal intensity of type II collagen, α-Klotho, Lamin A/C, and Lamin B2 in accordance with established protocol (Sahu, et al., 2018, supra). Briefly, after a triple wash by PBS, cells were permeabilized with 0.1% triton-X (Fluka 93420) for 15 minutes, followed by a one-hour blocking step using 0.1% triton-X with 3% Bovine Serum Albumin (BSA, Sigma A7906) in PBS. The cells were then incubated with primary antibodies for overnight at 4° C. A similar process was followed for the decalcified tissue paraffin. […]
Slides were imaged using a Zeiss Observer Z1 semi-confocal microscope. […] All images for quantitative analysis in a given experiment were taken under the same imaging conditions. Fluorescence intensity was quantified using Image J

[2] = test system: chondrocyte nuclear morphology; assay: BAPN daily injection in aged mice, chondrocyte nuclear morphology (CellProfiler, PCA)
Experimental: as §1
DAPI and F-actin images were obtained at 63× and 20× magnification using a Zeiss Observer Z1 semi-confocal microscope, respectively. Afterwards, image processing and morphome feature extraction were performed using CellProfiler software (v4.0, The Broad Institute) (Carpenter et al., Genome Biol 7, R100 (2006)). Fifty-three shape features of cell and nuclei were determined using the “identify primary objects” followed by the “measure object size shape” and “export to spread sheet” module. Principal Component Analysis (PCA) was performed for the data reduction identifying the principal components (PCs) that represent the differences in the cellular and nuclear morphology. To determine variables of cellular and nuclear shape contributing to PCs, loading matrix, a correlation between the original variable and PCs, were extracted.

With `N#CCCN` [BAPN, β-aminopropionitrile] the “cartilage integrity (OARSI score)” value [1] was “improves cartilage integrity”, the “α-Klotho expression in chondrocytes” value (α-Klotho) was “significantly increased α-Klotho levels; also recorded: increased α-Klotho expression; also recorded: improves α-Klotho expression” and the “nuclear eccentricity of chondrocytes” value [2] was “decreased nuclear eccentricity; also recorded: decreases nuclear eccentricity towards young level”.
